The record followed here is US8779129B2, “Triazinedione derivatives as GABAB receptor modulators” (Addex Pharma S.A., priority 2006, dated 2014).

The compound `CC(=O)Nc1cccc(-n2nc(CN(C)C)c(=O)n(Cc3ccc(Cl)cc3)c2=O)c1.Cl` yielded a melting point of 143 °C. `CC(=O)Nc1cccc(-n2nc(C#N)c(=O)n(Cc3ccc(Cl)cc3)c2=O)c1` [1.01, N-(3-(4-(4-chlorobenzyl)-6-cyano-3,5-dioxo-4,5-dihydro-1,2,4-triazin-2(3H)-yl)phenyl)acetamide]: the melting point turned out to be 196 °C. To `CC(=O)Nc1cccc(-n2ncc(=O)n(Cc3ccc(Cl)cc3)c2=O)c1` [2.01, N-(3-(4-(4-chlorobenzyl)-3,5-dioxo-4,5-dihydro-1,2,4-triazin-2(3H)-yl)phenyl)acetamide] belongs 171 to 172 °C. With `CC(=O)Nc1cccc(-n2ncc(=O)n(Cc3ccc(C#N)cc3)c2=O)c1` [2.05, N-(3-(4-(4-cyanobenzyl)-3,5-dioxo-4,5-dihydro-1,2,4-triazin-2(3H)-yl)phenyl)acetamide] the figure was 184 to 185 °C; with `CC(=O)Nc1cccc(-n2ncc(=O)n(Cc3ccc(Cl)cc3F)c2=O)c1` [2.20, N-(3-(4-(4-chloro-2-fluorobenzyl)-3,5-dioxo-4,5-dihydro-1,2,4-triazin-2(3H)-yl)phenyl)acetamide], 184 °C. For the compound `CC(=O)Nc1cccc(-n2nc(C)c(=O)n(Cc3ccc(Cl)cc3)c2=O)c1` [3.01, N-(3-(4-(4-chlorobenzyl)-6-methyl-3,5-dioxo-4,5-dihydro-1,2,4-triazin-2(3H)-yl)phenyl)acetamide], the melting point turned out to be 168 °C. In the case of `COc1nn(-c2cccc(NC(C)=O)c2)c(=O)n(Cc2ccc(Cl)cc2)c1=O` [4.01, N-(3-(4-(4-chlorobenzyl)-6-methoxy-3,5-dioxo-4,5-dihydro-1,2,4-triazin-2(3H)-yl)phenyl)acetamide], the melting point is 190 to 191 °C. For the compound `COc1nn(-c2cccc(NC(C)=O)c2)c(=O)n(Cc2ccc3c(c2)OC(F)(F)O3)c1=O` [4.127, N-(3-(4-((2,2-difluorobenzo[d][1,3]dioxol-5-yl)methyl)-6-methoxy-3,5-dioxo-4,5-dihydro-1,2,4-triazin-2(3H)-yl)phenyl)acetamide], the melting point worked out at 184 °C. With `COc1nn(-c2cccc(N(C)C(C)=O)c2)c(=O)n(Cc2ccc(Cl)cc2)c1=O` [4.133, N-(3-(4-(4-chlorobenzyl)-6-methoxy-3,5-dioxo-4,5-dihydro-1,2,4-triazin-2(3H)-yl)phenyl)-N-methylacetamide] the figure was 157 °C. `COCC(=O)Nc1cccc(-n2nc(OC)c(=O)n(Cc3ccc(Cl)cc3)c2=O)c1` [4.141, N-(3-(4-(4-chlorobenzyl)-6-methoxy-3,5-dioxo-4,5-dihydro-1,2,4-triazin-2(3H)-yl)phenyl)-2-methoxyacetamide] gave a melting point of 143 °C. The compound `COc1nn(-c2ccccc2O)c(=O)n(Cc2ccc(Cl)cc2)c1=O` [4.143, 4-(4-chlorobenzyl)-2-(2-hydroxyphenyl)-6-methoxy-1,2,4-triazine-3,5(2H,4H)-dione] had a melting point of 164 to 165 °C. To `COc1nn(-c2cccc(Nc3nccs3)c2)c(=O)n(Cc2ccc(Cl)cc2)c1=O` [4.144, 4-(4-chlorobenzyl)-6-methoxy-2-(3-(thiazol-2-ylamino)phenyl)-1,2,4-triazine-3,5(2H,4H)-dione] belongs 176 to 178 °C. Consider `COc1nn(-c2cccc(N3CCCC3=O)c2)c(=O)n(Cc2ccc(Cl)cc2)c1=O` [4.145, 4-(4-chlorobenzyl)-6-methoxy-2-(3-(2-oxopyrrolidin-1-yl)phenyl)-1,2,4-triazine-3,5(2H,4H)-dione], for which the melting point lay within 91 to 93 °C.

`COc1nn(-c2cccc(-c3noc(C)n3)c2)c(=O)n(Cc2ccc(Cl)cc2)c1=O` [4.146, 4-(4-chlorobenzyl)-6-methoxy-2-(3-(5-methyl-1,2,4-oxadiazol-3-yl)phenyl)-1,2,4-triazine-3,5(2H,4H)-dione] yielded a melting point of 163 to 165 °C. With `CC(=O)Nc1cccc(-n2nc(C(C)C)c(=O)n(Cc3ccc(Cl)cc3)c2=O)c1` [5.01, N-(3-(4-(4-chlorobenzyl)-6-isopropyl-3,5-dioxo-4,5-dihydro-1,2,4-triazin-2(3H)-yl)phenyl)acetamide] the figure was 178 °C. With `CC(=O)Nc1cccc(-n2nc(N(C)C)c(=O)n(Cc3ccc(Cl)cc3)c2=O)c1` [5.13, N-(3-(4-(4-chlorobenzyl)-6-(dimethylamino)-3,5-dioxo-4,5-dihydro-1,2,4-triazin-2(3H)-yl)phenyl)acetamide] the figure was 189 to 190 °C; with `COCc1nn(-c2cccc(NC(C)=O)c2)c(=O)n(Cc2ccc(Cl)cc2)c1=O` [5.16, N-(3-(4-(4-chlorobenzyl)-6-(methoxymethyl)-3,5-dioxo-4,5-dihydro-1,2,4-triazin-2(3H)-yl)phenyl)acetamide], 97 °C; with `COC(=O)c1nn(-c2cccc(NC(C)=O)c2)c(=O)n(Cc2ccc(Cl)cc2)c1=O` [5.17, Methyl 4-(4-chlorobenzyl)-2-(3-acetamidophenyl)-3,5-dioxo-2,3,4,5-tetrahydro-1,2,4-triazine-6-carboxylate], 193 °C. To `CC(=O)Nc1cccc(-n2nc(C(=O)OC(C)C)c(=O)n(Cc3ccc(Cl)cc3)c2=O)c1` [5.18, Isopropyl 2-(3-acetamidophenyl)-4-(4-chlorobenzyl)-3,5-dioxo-2,3,4,5-tetrahydro-1,2,4-triazine-6-carboxylate] belongs 183 °C.

A word on the melting point: it is the temperature of the solid-liquid transition.
